One test concerns anti-DNP IgG. Put plainly: Modified octet solution labelling kinetics assay with PSMA coated probes. The test is classed as binding, rabbit. Here is the method: To determine the kinetics of CIR 3 covalent labelling of anti-DNP IgG, a modified octet protocol was developed to accommodate the weaker binding affinity of glutamate urea on CIR 3 for biotinylated PSMA, which was loaded onto streptavidin coated octet probes in these experiments. First, streptavidin probes from ForteBio were placed in wells each containing 250 μl solutions composed of 100 nM biotinylated PSMA in kinetics Buffer (1×) spiked with 1% (v/v) DMSO for 20 minutes in an Octet Red96 instrument. The RPM was 1000, the temperature was held at 30° C., and the acquisition rate was 5 Hz. Following washing and baseline steps described above, the probes were then placed in a solution containing 200 nM CIR 3+100 nM anti-DNP IgG (Ab) that already had been allowed to react for varying amounts of time away from the octet instrument to form CIR 3-Ab, followed by quenching with 1 mM DNP-Glycine competitor to disrupt non covalent complex [CIR 3:Ab]. The association of CIR 3-Ab (already formed in solution) with PSMA coated probe was monitored, and the initial rates and final signal plateau measured as a function of the concentration of CIR 3-Ab formed with incubation time away from the octet instrument in solution. […]

In another test the test system is PSMA+HEK cells. The test is described as follows: Luminescence ADCC reporter (CD16α activation) assay with mmAb. To be noted: antibody 10^−7-10^−9 M. It counts as cell-based, human. The protocol: Covalent vs. non-covalent antibody recruitment were compared in functional immune assays. Activation of NK cell CD16α immune receptors was assessed via luminescence based ADCC assays. ADCC was quantified using the ADCC Reportor Bioassay kit (Promega G7010). All ADCC induced luminescence was measured on a SpectraMax i3 plate reader (Molecular Devices). The human IgG isotype control used was purchased from Jackson ImmunoResearch (009-000-003). The human IgG1 monoclonal anti-DNP antibody (mAb) was purchased from Acrobiosystems (DNP-M2). Human IgG from serum was purchased from Innovative Research ([…]1000MG). Anti-DNP depleted serum was made from human IgG from serum (Innovative Research). For PSMA competition controls, 2-PMPA was purchased from Sigma (SML1612). Hek-293T (PSMA+/−) cell lines were generously given by Dr. Cyril Barinka (Institute of Biotechnology CAS, Czech Republic). Ultra low IgG FBS was purchased from Fischer Scientific (A3381901). RPMI-1640 was purchased as a powder from Fischer Scientific (31800089) and resuspended. DMEM was purchased as a powder from Fischer Scientific (12800082) and resuspended. Pen/Strep was purchased from Fischer Scientific (15140-122). FBS was purchased from Fischer Scientific (12484-028). Zeocin was purchased from Fischer Scientific (R25001). HEK-PSMA cells were cultured in DMEM media with 2 mM L-glut, 1% Pen/Strep, 10% FBS, 50 ug/mL Zeocin. HEK cells were cultured in DMEM media with 2 mM L-glut, 1% Pen/Strep, 10% FBS.
Preparation of antibody-CIR/ARM stocks were mixed overnight prior to addition to the ADCC plate. In the case of mmAb and mAb, incubation was carried out at 600 nM antibody and 1.2 μM CIR or ARM. In the case of IgG from serum, incubation was completed at 230 μM antibody and 8.7 μM CIR or ARM. In all cases, DMSO was kept close to 1%. After the overnight incubation, a dilution series was completed on the antibody-CIR/ARM stocks in RPMI (1% DMSO). […] 75 μL of Bio-Glo Luciferase Assay Reagent was added to each well, and luminescence was quantified using the SpectraMax i3 plate reader. […]

Structures are written as SMILES.

On to `O=C(O)CC[C@H](NC(=O)N[C@@H](CCCCNC(=O)NCCOCCOCCOCCOCCOCCOCCOCCOC(=O)n1cnc(CCNC(=O)CNc2ccc([N+](=O)[O-])cc2[N+](=O)[O-])c1)C(=O)O)C(=O)O` [CIR 3], for which the “pseudo intramolecular complex labelling rate constant k=kobs/0.5” value in the test with anti-DNP IgG (200 nM CIR 3 + 100 nM anti-DNP IgG) stood at 0.51 h⁻¹. The “rate constant k2” value in the test with anti-DNP IgG (solution labelling, PSMA coated probes) is 0.00014 s⁻¹. Moreover, the “CD16α based target immune recognition” value with PSMA+HEK cells was “robust target immune recognition”.

The values above are taken from patent US11827624B2, “Covalent immune recruiter compounds for immune cell recognition and associated uses” (McMaster University, priority 2020, dated 2023).
